Test: in vitro
Settings: human, hela cells, % viability
CCc1ccc(OC)c(S(=O)(=O)NC2CC(C)(C)NC(C)(C)C2)c1 [CBK270098] showed a viability at 28.5 h, 10 µM of 101%. Compound Nc1ccc(OCc2nc3ccccc3n2CC(=O)O)cc1 [CBK270099] has a viability at 28.5 h, 10 µM of 96%. In the case of O=C(O)CCCn1cc(NC(=O)c2ccccc2Br)cn1 [CBK270100], the viability at 28.5 h, 10 µM is reported as 82.9%. CCn1c(SCC(=O)Nc2ccc(C#N)cc2)nnc1-c1ccncc1 [CBK270102] showed a viability at 28.5 h, 10 µM of 96.4%. With Cc1ccc(Cl)cc1NC(=O)CCn1cnc2ccccc2c1=O [CBK270103] the viability at 28.5 h, 10 µM was 95.1%. Compound Cn1ncc(N)c1C(=O)Nc1cccc(Cl)c1 [CBK270107] has a viability at 28.5 h, 10 µM of 87.6%. CCOc1cc(S(=O)(=O)NCCCN2CCOCC2)ccc1Br [CBK270111] gave a viability at 28.5 h, 10 µM of 87.4%. OCc1nc2ccccc2n1CCCCOc1ccccc1Cl [CBK270117] showed a viability at 28.5 h, 10 µM of 106%. In the case of O=C(O)CCCn1cc(NC(=O)c2cccs2)cn1 [CBK270122], the viability at 28.5 h, 10 µM is reported as 88.1%. With CC(=O)NCc1nnc2c3ccccc3c(-c3ccccc3)nn12 [CBK270123] the viability at 28.5 h, 10 µM was 92.3%. Cc1cccc(Cn2nc(C)c(NC(=O)c3ccncc3)c2C)c1 [CBK270126] showed a viability at 28.5 h, 10 µM of 97.2%. With O=C(CCn1cnnn1)Nc1cc(C(F)(F)F)ccc1Cl [CBK270127] the viability at 28.5 h, 10 µM was 91.4%. In the case of CCOC(=O)C1CCN(CCOc2ccc3ccccc3c2)CC1 [CBK270128C], the viability at 28.5 h, 10 µM is reported as 95.4%. Compound Cc1cc(CNC(=O)COc2ccc(C#N)cc2)c2ccccc2n1 [CBK270129] has a viability at 28.5 h, 10 µM of 87.6%. In the case of COc1ccc(-c2ccc(=O)n(CCN)n2)cc1 [CBK270130C], the viability at 28.5 h, 10 µM is reported as 97.2%. CN(C)S(=O)(=O)c1cccc(C(=O)NCc2ccco2)c1 [CBK270135] gave a viability at 28.5 h, 10 µM of 94.7%. Cc1ccc(NC(=O)CSc2cnn[nH]2)cc1 [CBK270136] gave a viability at 28.5 h, 10 µM of 86.2%. In the case of O=C(NCCCO)C1CCCN(S(=O)(=O)c2ccc3ccccc3c2)C1 (centres unmarked) [CBK270141], the viability at 28.5 h, 10 µM is reported as 88.3%. CCC(Oc1ccccc1C)C(=O)Nc1ccccc1C(=O)N(C)C (centres unmarked) [CBK270144] gave a viability at 28.5 h, 10 µM of 88.4%. For CCOc1ccc(N2C(=O)CC(N3CCN(CCc4ccccn4)CC3)C2=O)cc1 (centres unmarked) [CBK270149], the viability at 28.5 h, 10 µM was 95.8%. In the case of CNC(=O)c1ccc(OC)c(S(=O)(=O)NC)c1 [CBK270153], the viability at 28.5 h, 10 µM is reported as 88.9%. Compound O=C1CC(c2ccc(S(=O)(=O)NCc3ccccc3)cc2)CN1 (centres unmarked) [CBK270155] has a viability at 28.5 h, 10 µM of 87.5%. Fc1ccc(-c2ccc(CNCc3ccncc3)o2)cc1 [CBK270158C] gave a viability at 28.5 h, 10 µM of 92.7%. For CC1(C)Cc2cccc(OCC(=O)O)c2O1 [CBK270161], the viability at 28.5 h, 10 µM was 100%. With Cc1ccc(-c2cc(O)n(-c3nc(C)cc(C)n3)n2)cc1 [CBK270165] the viability at 28.5 h, 10 µM was 97.1%. For FC(F)(F)c1ccc(Oc2ccc(-c3noc(-c4cccnc4)n3)cc2)nc1 [CBK270166], the viability at 28.5 h, 10 µM was 90.3%. With O=C(Nc1ccc2c(c1)oc1ccccc12)C1CCCO1 (centres unmarked) [CBK270168] the viability at 28.5 h, 10 µM was 81.9%. In the case of CCN1CCN(c2ccc(C(=O)OC)cc2NC(=O)c2ccc(C#N)cc2F)CC1 [CBK270171], the viability at 28.5 h, 10 µM is reported as 101%. Work on Cc1cc(-c2cccs2)c(C#N)c(SCc2cccnc2)n1 [CBK270172] yielded a viability at 28.5 h, 10 µM of 81%. For COC(=O)COc1ccc2cccc(-n3cnnn3)c2c1 [CBK270173], the viability at 28.5 h, 10 µM was 84.7%. O=C(NCc1ccccn1)C1CC(=O)N(c2ccccc2)C1 (centres unmarked) [CBK270175] gave a viability at 28.5 h, 10 µM of 88.7%. With O=C1CC(C(=O)Nc2ccc3c(c2)OCO3)n2c(nc3ccccc32)N1 (centres unmarked) [CBK270177] the viability at 28.5 h, 10 µM was 93.6%. Compound CNS(=O)(=O)c1cc(C(=O)NCc2ccco2)ccc1OC [CBK270180] has a viability at 28.5 h, 10 µM of 103%. In the case of O=C(CN1CCN(c2ncccn2)CC1)N1N=CCC1c1ccccc1 (centres unmarked) [CBK270184], the viability at 28.5 h, 10 µM is reported as 89.4%. Work on CCOC(=O)c1cnc2nc3ccccc3n2c1C [CBK270185] yielded a viability at 28.5 h, 10 µM of 95.4%. Compound O=C(COc1nc2ccccc2s1)N1N=CCC1c1ccccc1 (centres unmarked) [CBK270188] has a viability at 28.5 h, 10 µM of 92.7%. For CNc1sc(C(=O)c2ccc(OC)c(OC)c2)c(N)c1C#N [CBK270194], the viability at 28.5 h, 10 µM was 86.1%. Cc1cc(C)c(S(=O)(=O)NC(C)C)c(C)c1-n1cnnn1 [CBK270197] gave a viability at 28.5 h, 10 µM of 96.5%. Cc1nn2c(C)c(C(=O)Nc3ccccc3)nnc2c1-c1ccccc1 [CBK270198] showed a viability at 28.5 h, 10 µM of 85.6%. With COc1ccc(C(=O)N2CCN(c3ccc(NC(=O)c4cccnc4)cc3)CC2)cc1 [CBK270200] the viability at 28.5 h, 10 µM was 85.5%. Compound COc1ccc(-c2cc(C(F)(F)F)c3c(n2)sc2c(=O)cc(O)[nH]c23)cc1OC [CBK270201] has a viability at 28.5 h, 10 µM of 84.6%. O=C(CC1SCCNC1=O)NCc1ccccc1 (centres unmarked) [CBK270202] showed a viability at 28.5 h, 10 µM of 99.1%. With COCC(C)NS(=O)(=O)c1cc(Cl)ccc1OC (centres unmarked) [CBK270203] the viability at 28.5 h, 10 µM was 90.7%. Compound COc1ccc(C)cc1NC(=O)CSc1nc(C)cc(C(F)(F)F)n1 [CBK270205] has a viability at 28.5 h, 10 µM of 96%. Compound Cc1ccc2c(c1)N(CC(N)=O)C(=O)CO2 [CBK270208] has a viability at 28.5 h, 10 µM of 92.9%. Work on Cc1cccc(-c2noc(CNC(=O)CSc3ccccc3)n2)c1 [CBK270209] yielded a viability at 28.5 h, 10 µM of 98.3%. In the case of Cn1c(=O)n(C)c2cc(NC3=NS(=O)(=O)c4ccccc43)ccc21 [CBK270210], the viability at 28.5 h, 10 µM is reported as 91.9%. O=C(O)c1ccccc1CSc1ccccn1 [CBK270213] gave a viability at 28.5 h, 10 µM of 98%. In the case of Cc1ccc(NC(=O)CC2Nc3ccccc3OC2=O)cc1C (centres unmarked) [CBK270214], the viability at 28.5 h, 10 µM is reported as 81.5%. For Cc1nc2ccccc2nc1SCc1nc(N)nc(N2CCCCC2)n1 [CBK270218], the viability at 28.5 h, 10 µM was 92.2%. With CCC(=O)NCc1ccc(-c2nc3ncccc3o2)cc1 [CBK270220] the viability at 28.5 h, 10 µM was 108%. Cc1nc2ccc(NC(=O)c3cccc(C(F)(F)F)c3)cc2nc1C [CBK270221] gave a viability at 28.5 h, 10 µM of 88.2%. With COC(=O)c1ccc(N2CCOCC2)c(NC(=O)COc2ccccc2)c1 [CBK270222] the viability at 28.5 h, 10 µM was 84.6%. In the case of O=C(Nc1cccc(-c2noc(CCc3ccccc3)n2)c1)c1cccs1 [CBK270225], the viability at 28.5 h, 10 µM is reported as 87.4%. Cc1cc(C)nc(-n2ncc(C#N)c2N)n1 [CBK270227] showed a viability at 28.5 h, 10 µM of 87%. Compound CCN(Cc1nc(-c2ccccc2)no1)C(=O)c1ccoc1C [CBK270229] has a viability at 28.5 h, 10 µM of 89.3%. Nc1nc(CN2CCN(c3ccccc3F)CC2)nc(N2CCCc3ccccc32)n1 [CBK270234] showed a viability at 28.5 h, 10 µM of 87.4%. For Cc1nnc(SCC(=O)NC2CC3CCC2C3)[nH]1 (centres unmarked) [CBK270239], the viability at 28.5 h, 10 µM was 88.1%. For CC(C)(C)c1ccc(-c2cc(C3CCNCC3)n[nH]2)cc1 [CBK270240], the viability at 28.5 h, 10 µM was 94%. Compound COCC(C)NC(=O)C1CCCN(S(=O)(=O)c2ccc(OC)c(C)c2)C1 (centres unmarked) [CBK270242] has a viability at 28.5 h, 10 µM of 86%. O=C(Nc1cccc(-c2noc(Cc3ccccc3)n2)c1)c1cccs1 [CBK270244] gave a viability at 28.5 h, 10 µM of 101%. For COc1ccc(C(=O)Nc2ccc(N3CCN(C(=O)C(C)(C)C)CC3)cc2)cc1OC [CBK270245], the viability at 28.5 h, 10 µM was 90.6%. Work on O=C(CSc1nncc(=O)[nH]1)NCc1ccccc1 [CBK270246] yielded a viability at 28.5 h, 10 µM of 85.3%. Work on COC(=O)CSc1nnc(-c2cc(Cl)ccc2OC)[nH]1 [CBK270248] yielded a viability at 28.5 h, 10 µM of 97%. Compound CCOc1ccc(S(=O)(=O)NCCOC)cc1Cl [CBK270251] has a viability at 28.5 h, 10 µM of 91.5%. For COc1cc(CNCc2ccc(F)cc2)cc(Cl)c1OCC(N)=O [CBK270256C], the viability at 28.5 h, 10 µM was 89%. CCOc1cccc2cc(C(=O)N3CCN(Cc4ccccc4)CC3)c(=O)oc12 [CBK270259C] gave a viability at 28.5 h, 10 µM of 74.3%. Fc1cccc(-c2nc(-c3cccnc3)no2)c1 [CBK270260] showed a viability at 28.5 h, 10 µM of 92.6%.
